# Experimental data taken from article PMC13210772, “Dual FLT3/MAPK14 Proteolysis-Targeting Chimera (PROTAC) Induces Potent Acute Myeloid Leukemia Cell Death” (Pharmaceuticals, 2026).
# How the values were obtained:
# Assay in all cases: NanoBRET CELLinib128
# Assay type in all cases: binding
# CSNK1G2 = biological target: T1, CSNK1G2 (Homo sapiens, UniProt P78368); details: 1 µM; 100% no effect, 0% complete tracer displacement
# T1 construct: Full-length kinase ORF (Promega, Madison, WI, USA) cloned in frame with a NanoLuc-vector was transfected into HEK293T cells; host or cells: HEK293T
# Experimental: (§1) To get an impression about the binding strength of the PROTAC MA191 and the reference inhibitor MA68 to other kinases besides FLT3-ITD the binding on a kinase panel of further 128 representative protein kinases at 1 μM concentration was tested using the NanoBRET^TM cellular target engagement assay (CELLinib128 assay, CELLinib GmbH, Frankfurt, Germany). […] In none of the 128 kinases MA191 was able to displace the tracer (inhibitor) used by more than 50%, Table S1, Supplementary Information).
# (§2) The CELLinib128 assay was performed by CELLinib GmbH, Frankfurt (Germany) as described previously. In brief: Full-length kinase ORF (Promega, Madison, WI, USA) cloned in frame with a NanoLuc-vector was transfected into HEK293T cells in Opti-MEM without phenol red (Life Technologies, Carlsbad, CA, USA) at a density of 2 × 10^5 cells/mL using FuGENE HD (Promega, E2312) and proteins were allowed to express for 20 h. For CDKs, where indicated below, an excess of an activator without an NLuc-fusion was cotransfected. […] The system was allowed to equilibrate at 37 °C for 2 h and 5% CO2 prior to BRET measurements. For PKCs, a chemical activator PMA was added in a final concentration of 1 µM was added together with test compounds and tracers (Promega, V1171). To measure BRET, NanoBRET^TM NanoGlo substrate + extracellular NanoLuc inhibitor (Promega, N2160) were added as per the manufacturer’s protocol, and filtered luminescence was measured (450 nm BP filter (donor) and 610 nm LP filter (acceptor)). For the 1-shot test compounds, data were normalized to the tracer control and the background control or control compound plateau and an average and SD were calculated. […] For the control compounds competitive displacement data were normalized to the tracer Ctrl and the background Ctrl and then plotted and fitted using GraphPad Prism 10 software using a normalized 3-parameter curve fit with the following equation: Y = 100/(1 + 10^X−LogIC50).
# ERN2 = biological target: T2, ERN2 (Homo sapiens, UniProt Q76MJ5); details: 100% no effect, 0% complete tracer displacement, read-out: Tracer bound
# T2 construct: Full-length kinase ORF (Promega, Madison, WI, USA) cloned in frame with a NanoLuc-vector was transfected into HEK293T cells; host or cells: HEK293T
# Experimental: as §1, §2
# TNK2 = biological target: T3, TNK2 (Homo sapiens, UniProt Q07912); details: 100% no effect, 0% complete tracer displacement, read-out: Tracer bound
# T3 construct: Full-length kinase ORF (Promega, Madison, WI, USA) cloned in frame with a NanoLuc-vector; host or cells: HEK293T
# T3 sequence (Q07912 whole entry): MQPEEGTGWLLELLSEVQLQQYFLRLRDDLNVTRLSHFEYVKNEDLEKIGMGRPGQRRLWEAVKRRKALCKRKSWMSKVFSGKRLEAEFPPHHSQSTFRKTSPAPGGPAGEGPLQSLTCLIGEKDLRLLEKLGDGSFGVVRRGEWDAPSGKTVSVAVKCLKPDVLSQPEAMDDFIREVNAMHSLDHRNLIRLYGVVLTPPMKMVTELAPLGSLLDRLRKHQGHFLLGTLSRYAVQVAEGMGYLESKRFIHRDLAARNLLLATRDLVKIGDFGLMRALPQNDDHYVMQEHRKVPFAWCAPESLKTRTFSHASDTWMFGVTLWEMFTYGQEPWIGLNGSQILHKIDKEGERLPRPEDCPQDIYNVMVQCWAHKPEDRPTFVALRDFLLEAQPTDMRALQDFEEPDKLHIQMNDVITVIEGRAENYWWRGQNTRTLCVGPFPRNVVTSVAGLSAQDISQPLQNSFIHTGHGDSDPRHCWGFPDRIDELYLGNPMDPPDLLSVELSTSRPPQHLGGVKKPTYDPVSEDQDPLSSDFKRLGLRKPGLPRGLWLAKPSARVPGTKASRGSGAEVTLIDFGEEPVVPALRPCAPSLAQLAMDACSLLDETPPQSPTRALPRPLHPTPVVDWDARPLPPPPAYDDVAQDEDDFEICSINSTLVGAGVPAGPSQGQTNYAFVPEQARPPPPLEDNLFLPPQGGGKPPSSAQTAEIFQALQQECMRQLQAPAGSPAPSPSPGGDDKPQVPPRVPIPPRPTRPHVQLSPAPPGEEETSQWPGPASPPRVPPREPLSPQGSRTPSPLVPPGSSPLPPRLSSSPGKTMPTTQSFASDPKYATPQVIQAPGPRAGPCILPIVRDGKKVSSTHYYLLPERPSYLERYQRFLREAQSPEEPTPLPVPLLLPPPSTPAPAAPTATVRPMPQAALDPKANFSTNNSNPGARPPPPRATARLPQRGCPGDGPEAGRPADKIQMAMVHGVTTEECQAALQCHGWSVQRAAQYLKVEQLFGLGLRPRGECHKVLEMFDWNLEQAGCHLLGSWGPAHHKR
# Experimental: as §1, §2
# PRKAA1 = biological target: T4, PRKAA1 (Homo sapiens, UniProt Q13131); details: 100% no effect, 0% complete tracer displacement, read-out: Tracer bound
# T4 construct: Full-length kinase ORF (Promega, Madison, WI, USA) cloned in frame with a NanoLuc-vector was transfected into HEK293T cells; host or cells: HEK293T
# T4 sequence (Q13131 whole entry): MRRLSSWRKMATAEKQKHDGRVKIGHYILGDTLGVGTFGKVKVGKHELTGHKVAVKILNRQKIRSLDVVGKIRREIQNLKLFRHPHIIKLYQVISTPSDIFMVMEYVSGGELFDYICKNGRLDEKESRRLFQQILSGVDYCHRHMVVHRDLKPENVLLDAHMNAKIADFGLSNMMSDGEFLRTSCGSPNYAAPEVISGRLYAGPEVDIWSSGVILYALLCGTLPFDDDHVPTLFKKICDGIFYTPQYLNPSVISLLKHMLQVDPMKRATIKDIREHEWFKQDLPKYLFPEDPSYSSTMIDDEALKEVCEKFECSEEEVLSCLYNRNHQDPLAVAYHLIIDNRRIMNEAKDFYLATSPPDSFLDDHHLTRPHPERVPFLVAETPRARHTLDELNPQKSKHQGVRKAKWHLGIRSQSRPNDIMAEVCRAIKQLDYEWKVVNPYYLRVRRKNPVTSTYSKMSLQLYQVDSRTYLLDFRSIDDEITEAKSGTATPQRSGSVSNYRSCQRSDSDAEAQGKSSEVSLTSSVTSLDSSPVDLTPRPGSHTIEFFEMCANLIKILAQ
# Experimental: as §1, §2
# STK35 = biological target: T5, STK35 (Homo sapiens, UniProt Q8TDR2); details: 100% no effect, 0% complete tracer displacement, read-out: Tracer bound
# T5 construct: Full-length kinase ORF (Promega, Madison, WI, USA) cloned in frame with a NanoLuc-vector was transfected into HEK293T cells; host or cells: HEK293T
# T5 sequence (Q8TDR2 whole entry): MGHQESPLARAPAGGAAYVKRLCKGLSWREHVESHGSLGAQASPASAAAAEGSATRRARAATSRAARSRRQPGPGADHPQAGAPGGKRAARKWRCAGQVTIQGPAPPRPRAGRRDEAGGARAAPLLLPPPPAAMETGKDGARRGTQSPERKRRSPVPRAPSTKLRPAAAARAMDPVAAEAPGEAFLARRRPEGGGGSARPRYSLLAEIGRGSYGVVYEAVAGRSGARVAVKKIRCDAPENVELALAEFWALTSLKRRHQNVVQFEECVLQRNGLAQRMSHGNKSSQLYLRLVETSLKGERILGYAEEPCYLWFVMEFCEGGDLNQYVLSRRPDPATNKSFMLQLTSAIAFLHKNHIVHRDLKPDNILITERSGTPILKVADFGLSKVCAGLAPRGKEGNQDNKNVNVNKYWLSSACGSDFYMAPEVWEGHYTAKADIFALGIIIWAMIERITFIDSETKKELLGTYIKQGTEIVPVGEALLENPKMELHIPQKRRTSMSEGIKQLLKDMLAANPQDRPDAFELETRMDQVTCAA
# Experimental: as §1, §2
# AURKB = biological target: T6, AURKB (Homo sapiens, UniProt Q96GD4); details: 100% no effect, 0% complete tracer displacement, read-out: Tracer bound
# T6 construct: Full-length kinase ORF (Promega, Madison, WI, USA) cloned in frame with a NanoLuc-vector was transfected into HEK293T cells; host or cells: HEK293T
# Experimental: as §1, §2
# NEK3 = biological target: T7, NEK3 (Homo sapiens, UniProt P51956); details: 100% no effect, 0% complete tracer displacement, read-out: Tracer bound
# T7 construct: Full-length kinase ORF (Promega, Madison, WI, USA) cloned in frame with a NanoLuc-vector was transfected into HEK293T cells; host or cells: HEK293T
# Experimental: as §1, §2
# PAK6 = biological target: T8, PAK6 (Homo sapiens, UniProt Q9NQU5); details: 100% no effect, 0% complete tracer displacement, read-out: Tracer bound
# T8 construct: Full-length kinase ORF (Promega, Madison, WI, USA) cloned in frame with a NanoLuc-vector was transfected into HEK293T cells; host or cells: HEK293T
# T8 sequence (Q9NQU5 whole entry): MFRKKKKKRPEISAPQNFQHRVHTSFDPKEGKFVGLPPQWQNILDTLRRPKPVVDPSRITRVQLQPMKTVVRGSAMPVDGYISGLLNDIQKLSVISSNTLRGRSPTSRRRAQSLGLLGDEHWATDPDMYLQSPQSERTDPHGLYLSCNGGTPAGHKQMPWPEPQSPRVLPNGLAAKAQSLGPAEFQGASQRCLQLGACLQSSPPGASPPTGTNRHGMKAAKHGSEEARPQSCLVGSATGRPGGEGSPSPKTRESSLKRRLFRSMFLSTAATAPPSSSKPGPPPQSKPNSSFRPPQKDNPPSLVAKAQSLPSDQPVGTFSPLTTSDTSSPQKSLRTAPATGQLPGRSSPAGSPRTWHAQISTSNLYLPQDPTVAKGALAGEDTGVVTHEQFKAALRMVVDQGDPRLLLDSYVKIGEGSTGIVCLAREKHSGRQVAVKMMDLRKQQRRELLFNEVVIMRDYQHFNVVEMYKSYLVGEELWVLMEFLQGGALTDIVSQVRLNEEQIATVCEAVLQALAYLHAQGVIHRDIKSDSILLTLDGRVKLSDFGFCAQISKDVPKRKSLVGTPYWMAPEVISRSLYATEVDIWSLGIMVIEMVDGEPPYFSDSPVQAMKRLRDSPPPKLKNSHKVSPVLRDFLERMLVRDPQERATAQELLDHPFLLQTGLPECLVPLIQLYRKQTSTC
# Experimental: as §1, §2
# CDK14-CCNY = biological target: T9, CDK14-CCNY (Homo sapiens, UniProt O94921); details: 1 µM; 100% no effect, 0% complete tracer displacement
# T9 construct: Full-length kinase ORF (Promega, Madison, WI, USA) cloned in frame with a NanoLuc-vector was transfected into HEK293T cells; host or cells: HEK293T
# T9 sequence (O94921 whole entry): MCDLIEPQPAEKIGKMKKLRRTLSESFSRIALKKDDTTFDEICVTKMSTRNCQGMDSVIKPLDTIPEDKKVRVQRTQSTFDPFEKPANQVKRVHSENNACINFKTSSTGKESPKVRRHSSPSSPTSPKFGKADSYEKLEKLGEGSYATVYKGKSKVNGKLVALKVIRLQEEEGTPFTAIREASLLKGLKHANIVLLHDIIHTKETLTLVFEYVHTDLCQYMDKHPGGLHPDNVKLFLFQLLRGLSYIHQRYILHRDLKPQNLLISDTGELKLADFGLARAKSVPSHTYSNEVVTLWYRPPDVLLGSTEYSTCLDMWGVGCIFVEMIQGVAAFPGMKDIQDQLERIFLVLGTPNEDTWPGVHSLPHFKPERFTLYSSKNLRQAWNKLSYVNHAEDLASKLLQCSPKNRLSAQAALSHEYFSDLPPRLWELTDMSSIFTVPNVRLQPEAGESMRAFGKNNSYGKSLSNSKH
# T9 sequence (Q8ND76 whole entry partner): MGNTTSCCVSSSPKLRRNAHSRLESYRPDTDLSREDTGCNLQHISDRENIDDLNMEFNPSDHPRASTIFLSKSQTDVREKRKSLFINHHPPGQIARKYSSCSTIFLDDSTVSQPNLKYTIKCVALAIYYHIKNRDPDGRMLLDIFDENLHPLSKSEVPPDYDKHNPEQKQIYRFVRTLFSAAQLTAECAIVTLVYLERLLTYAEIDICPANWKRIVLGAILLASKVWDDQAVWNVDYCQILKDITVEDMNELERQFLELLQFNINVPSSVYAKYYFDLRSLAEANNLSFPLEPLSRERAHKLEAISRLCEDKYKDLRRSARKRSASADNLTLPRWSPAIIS
# Experimental: as §1, §2
# TNK1 = biological target: T10, TNK1 (Homo sapiens, UniProt Q13470); details: 100% no effect, 0% complete tracer displacement, read-out: Tracer bound
# T10 construct: Full-length kinase ORF (Promega, Madison, WI, USA) cloned in frame with a NanoLuc-vector; host or cells: HEK293T
# T10 sequence (Q13470 whole entry): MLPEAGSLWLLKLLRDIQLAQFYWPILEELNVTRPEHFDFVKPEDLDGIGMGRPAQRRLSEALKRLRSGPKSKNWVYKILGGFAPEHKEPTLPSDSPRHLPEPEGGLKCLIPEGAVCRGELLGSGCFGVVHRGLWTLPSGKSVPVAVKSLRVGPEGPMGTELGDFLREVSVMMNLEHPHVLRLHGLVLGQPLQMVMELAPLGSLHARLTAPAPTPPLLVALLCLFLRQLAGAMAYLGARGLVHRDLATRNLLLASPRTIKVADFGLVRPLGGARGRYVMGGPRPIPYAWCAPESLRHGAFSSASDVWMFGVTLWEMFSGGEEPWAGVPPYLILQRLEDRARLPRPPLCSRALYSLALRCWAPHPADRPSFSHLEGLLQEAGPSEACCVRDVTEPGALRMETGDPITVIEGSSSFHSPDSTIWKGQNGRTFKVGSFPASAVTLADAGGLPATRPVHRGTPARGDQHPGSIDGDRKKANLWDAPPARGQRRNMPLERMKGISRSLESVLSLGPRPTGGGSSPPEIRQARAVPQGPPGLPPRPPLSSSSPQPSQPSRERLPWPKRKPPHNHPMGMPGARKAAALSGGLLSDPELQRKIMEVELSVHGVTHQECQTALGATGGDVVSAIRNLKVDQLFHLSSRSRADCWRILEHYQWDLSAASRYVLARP
# Experimental: as §1, §2
# PAK4 = biological target: T11, PAK4 (Homo sapiens, UniProt O96013); details: 100% no effect, 0% complete tracer displacement, read-out: Tracer bound
# T11 construct: Full-length kinase ORF (Promega, Madison, WI, USA) cloned in frame with a NanoLuc-vector was transfected into HEK293T cells; host or cells: HEK293T
# T11 sequence (O96013 whole entry): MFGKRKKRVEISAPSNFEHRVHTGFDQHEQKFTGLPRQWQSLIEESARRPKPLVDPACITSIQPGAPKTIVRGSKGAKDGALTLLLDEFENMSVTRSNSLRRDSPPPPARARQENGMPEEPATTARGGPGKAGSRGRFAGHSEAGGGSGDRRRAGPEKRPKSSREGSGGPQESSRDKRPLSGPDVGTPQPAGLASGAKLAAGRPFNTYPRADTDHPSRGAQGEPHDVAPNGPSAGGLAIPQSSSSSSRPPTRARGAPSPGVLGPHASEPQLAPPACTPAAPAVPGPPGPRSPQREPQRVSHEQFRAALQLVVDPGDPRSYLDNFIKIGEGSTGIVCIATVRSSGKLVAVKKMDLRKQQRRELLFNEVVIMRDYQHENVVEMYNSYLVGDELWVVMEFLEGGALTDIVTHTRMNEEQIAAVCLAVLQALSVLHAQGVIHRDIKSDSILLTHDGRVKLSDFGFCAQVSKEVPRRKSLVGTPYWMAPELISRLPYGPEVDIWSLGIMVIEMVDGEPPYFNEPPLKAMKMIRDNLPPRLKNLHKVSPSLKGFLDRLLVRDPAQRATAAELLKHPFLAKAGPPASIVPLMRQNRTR
# Experimental: as §1, §2
# TNNI3K = biological target: T12, TNNI3K (Homo sapiens, UniProt Q59H18); details: 100% no effect, 0% complete tracer displacement, read-out: Tracer bound
# T12 construct: Full-length kinase ORF (Promega, Madison, WI, USA) cloned in frame with a NanoLuc-vector; host or cells: HEK293T
# Experimental: as §1, §2
# CDK17-CCNY = biological target: T13, CDK17-CCNY (Homo sapiens, UniProt Q00537); details: 100% no effect, 0% complete tracer displacement, read-out: Tracer bound
# T13 construct: Full-length kinase ORF (Promega, Madison, WI, USA) cloned in frame with a NanoLuc-vector was transfected into HEK293T cells; host or cells: HEK293T
# Experimental: as §1, §2
# PRKCE-PMA = biological target: T14, PRKCE-PMA (Homo sapiens, UniProt Q02156); details: 100% no effect, 0% complete tracer displacement, read-out: Tracer bound
# T14 construct: Full-length kinase ORF (Promega, Madison, WI, USA) cloned in frame with a NanoLuc-vector was transfected into HEK293T cells; host or cells: HEK293T
# Experimental: as §1, §2
# HUNK = biological target: T15, HUNK (Homo sapiens, UniProt P57058); details: 100% no effect, 0% complete tracer displacement, read-out: Tracer bound
# T15 construct: Full-length kinase ORF (Promega, Madison, WI, USA) cloned in frame with a NanoLuc-vector was transfected into HEK293T cells; host or cells: HEK293T
# Experimental: as §1, §2
structure (smiles),measurement,setting,value
"Cc1ncsc1-c1ccc([C@H](C)NC(=O)[C@@H]2C[C@@H](O)CN2C(=O)[C@@H](NC(=O)[C@H]2CC[C@H](C(=O)N3CCN(CCNC(=O)c4cc(Oc5ccc(NC(=O)Nc6cc(C(C)(C)C)on6)cc5)ccn4)CC3)CC2)C(C)(C)C)cc1 [MA191, 4-(4-(3-(5-(tert-Butyl)isoxazol-3-yl)ureido)phenoxy)-N-(2-(4-(trans-4-(((S)-1-((2S,4R)-4-hydroxy-2-(((S)-1-(4-(4-methylthiazol-5-yl)phenyl)ethyl)carbamoyl)pyrrolidin-1-yl)-3,3-dimethyl-1-oxobutan-2-yl)carbamoyl)cyclohexanecarbonyl)piperazin-1-yl)ethyl)picolinamide]",Tracer bound,CSNK1G2,92.4%
same,remaining activity at 1 µM,ERN2,116%
same,remaining activity at 1 µM,TNK2,118%
same,remaining activity at 1 µM,PRKAA1,110%
same,remaining activity at 1 µM,STK35,95.8%
same,remaining activity at 1 µM,AURKB,109%
same,remaining activity at 1 µM,NEK3,100%
same,remaining activity at 1 µM,PAK6,120%
same,Tracer bound,CDK14-CCNY,95.7%
same,remaining activity at 1 µM,TNK1,120%
same,remaining activity at 1 µM,PAK4,101%
same,remaining activity at 1 µM,TNNI3K,83.2%
same,remaining activity at 1 µM,CDK17-CCNY,81.3%
same,remaining activity at 1 µM,PRKCE-PMA,78.3%
same,remaining activity at 1 µM,HUNK,103%
